Experimental data from patent US11524045B2, “Peptides for dry eye disease” (ALLYSTA PHARMACEUTICALS, INC., priority 2017, dated 2022).
“Also recorded” adds a separate entry of the source.

Tests used:
Assay type in all cases: in vivo, C57BL/6 mice
[1] = system: desiccating stress-induced dry eye (experimental dry eye; EDE); test: Tear film break-up time (TBUT) in mouse model of desiccating stress-induced dry eye; details: EDE mice, 5% Lifitegrast or 0.1% SEQ ID NO:1, 2 μL eye drops three times a day, five and 10-day endpoints, vs untreated dry eye (vehicle)
Description: (§1) The following Methods were used to evaluate the efficacy, anti-inflammatory activity and the therapeutic potential of a peptide inhibitor of trans-endothelial migration peptide compared with 5% Lifitegrast in a mouse model of desiccating stress-induced dry eye (experimental dry eye; EDE).
(§2) Desiccating stress was induced in six to eight-week-old female C57BL/6 mice by subcutaneous injection of 0.5 mg/0.2 mL scopolamine hydrobromide (Sigma-Aldrich, St. Louis, Mo.) three times a day ([…] given at 4.5 hr. intervals) with exposure to an air draft and 30% ambient humidity), which was maintained throughout the dosing period. During these experiments, the animals' behavior, food, and water intake were not restricted. Treatment was terminated and testing was conducted at endpoints of either five or ten days.
Each treatment group comprised 5 animals (n=10 eyes/group) randomly assigned. The groups were treated topically as follows: • 1. Untreated (Normal) control mice that were not exposed to desiccating stress or treated topically • 2. EDE mice treated with balanced salt solution (BSS, vehicle, Alcon, Fort Worth, Tex.) • 3. EDE mice treated with 5% (wt) Lifitegrast (Shire Plc) • 4. […]
All treatment groups received 2 μL eye drops three times a day. The mice in each treatment group: EDE treated with BSS, EDE treated with 5% Lifitegrast, and EDE treated with 0.1% SEQ ID NO:1 were dosed/treated three times/day with 2 uL eye drops of each treatment, respectively (except Normal group). […]
After three blinks, tear film break-up time (BUT) was recorded in seconds using slit lamp biomicroscopy (BQ-900; Haag-Streit, Bern, Switzerland) under cobalt blue light. […]
Tear Film Break-up: This experiment evaluated the anti-inflammatory activity and efficacy of the peptide inhibitor of trans-endothelial migration peptide in ameliorating Desiccation-induced Dry Eye (DED). Eyes were evaluated for time for dry spots to appear on the corneal surface of the eye after blinking. […] Subjects with normal tear quantity but an unstable tear film can explain dry eye symptoms. […]

[2] = system: desiccating stress-induced dry eye (experimental dry eye; EDE); test: Corneal fluorescein staining in mouse model of desiccating stress-induced dry eye; details: EDE mice; 5% Lifitegrast or 0.1% SEQ ID NO:1, 2 μL eye drops three times a day; five and ten days; vs untreated dry eyes
Description: as §1, §2
Each treatment group comprised 5 animals (n=10 eyes/group) randomly assigned. […]
Ninety seconds after the fluorescein drops were added to measure TBUT, punctate staining on the corneal surface was evaluated in a masked fashion. Each cornea was divided into four quadrants that were scored individually. Corneal fluorescein staining severity score was calculated using a 4-point scale: 0=absent; 1=slightly punctate staining <30 spots; 2=punctate staining >30 spots, but not diffuse; 3=severe diffuse staining but no positive plaque; and 4=positive fluorescein plaque. […]

[3] = system: CD4+ and CCR5+ T cells from the conjunctiva; test: Flow cytometry of activated T cells from the conjunctiva in murine dry eye model; details: EDE mice; 0.1% SEQ ID NO:1 eye drops three times a day; after 10 days; normal range 15% to 22%, normal control 18.86%
Description: as §1, §2
Each treatment group comprised 5 animals (n=10 eyes/group) randomly assigned. The groups were treated topically as follows: • 1. […]
Flow cytometry was performed for quantitation of CD4+ and CCR5+ T cells from the conjunctiva as previously described (Yoon K C, Heo H, Kang I S, et al. Cornea (2008) 27: 454-460). […]
The number of CD4+ and CCR5+ T cells was counted by a FACSCalibur cytometer with CellQuest software (BD Biosciences).
Eye conjunctiva was evaluated for the number of Activated T cells present in the conjunctiva for each group in the murine Dry Eye study. […]

| Compound | tear film break-up time [1] | corneal fluorescein staining grade (corneal disruptions) [2] | tear film break-up time ([1]; listed as peptide inhibitor of trans-endothelial migration peptide) | percentage of Activated T Cells within the conjunctiva [3] [%] |
| --- | --- | --- | --- | --- |
| CS(=O)(=O)c1cccc(C[C@H](NC(=O)c2c(Cl)cc3c(c2Cl)CCN(C(=O)c2ccc4ccoc4c2)C3)C(=O)O)c1 [Lifitegrast, reference compound] | can ameliorate induced dry eye; also recorded: can ameliorate DED | improved corneal disruptions |  |  |
| H-Ser-Val-Thr-Glu-Gln-Gly-Ala-Glu-Leu-Ser-Asn-Glu-Glu-Arg-NH2 (H-SVTEQGAELSNEER-NH2) [SEQ ID NO:1] | noticeably improved tear film times at both endpoints | improved corneal disruptions | noticeably improved tear film times at both intervals | 21.67 |
